What was measured:
[1] = tested on: rabbit ventricular myocytes; experiment: Intracellular sodium [Na^+]i in ventricular myocytes during PMI, Sodium Green flow cytometry; type: cell-based; conditions: PMI + ODSH 100 μg/mL; n = 7; PMI alone 11.16 ± 0.90, Hepes 6.04 ± 0.25
Procedure: In these studies, intracellular calcium concentration [Ca^++]i was measured by flow cytometry. Measurement of isolated mouse and rabbit ventricular myocyte [Ca^2+]i and [Na^+]i by flow cytometry has been described (Zhang et al., J. Cardiovasc. Pharmacol. 51: 443-449 (2008); Li et al., J. Mol. Cell. Cardiol. 33: 2145-2155 (2001)). [Ca^++]i was measured with the Ca^++ sensitive fluorescent probe, Fluo 3-AM (Molecular Probes, Eugene, Oreg.), using a FACScan (Becton-Dickinson, MA). The cells were exposed to 4 μmol/L Fluo-3 AM for 30 min at 37° C. The cells were then separated into aliquots. After 40 min of wash, the cells were exposed to paced metabolic ischemia (MI) for 45 min at 37° C. Metabolic ischemia was accomplished by incubating cells in a glucose-free MKRBB solution (pH 7.40) containing 2 mmol/L sodium cyanide (NaCN) to impair mitochondrial and glycolytic generation of ATP. […] Approximately 2×10^3 myocytes were analyzed to calculate average emission fluorescence intensity in each sample. […] Only those cells with low fluorescence intensity at 670 nm (PI-negative cells or viable cells) were included in the comparative analysis of [Ca^++]i. The sample [Ca^2+]i values were calculated by Mn^2+ quenching (Sugishita et al, 2001) and [Na^+]i values by comparison with a standard curve of varied [Na^+]i versus Na Green fluorescence. […] Results were expressed as means±SEM. […]

[2] = tested on: activated clotting time (ACT); experiment: Porcine ischemia/reperfusion model: activated clotting time (ACT); type: in vivo, pig; conditions: for ACT group difference versus control: 90 and 180 min after
Text: Arterial access was achieved via bilateral femoral artery cut-downs for the insertion of 8F sheaths. Central venous and carotid access was achieved via a neck incision to expose the external jugular vein and common carotid artery. Animals were then anticoagulated with 50 U/kg of unfractionated heparin to maintain an activated clotting time (ACT) between 250-350 seconds, prior to ischemia. A 7-8 Fr pigtail catheter was placed in the left ventricular cavity to measure pressure and for injection of […] microspheres. Angiography was performed to define coronary anatomy and measure the diameter of the left anterior descending coronary artery (LAD) at the point of intended balloon occlusion. A coronary sinus catheter was placed via the external jugular vein under fluoroscopic guidance for coronary venous sampling. Baseline cardiodynamic and hemodynamic data were measured using a solid state transducer-tipped catheter in the left ventricle (Millar Instruments, Houston, Tex.) to measure left ventricular pressure, and a fluid-filled transducer connected to the side port of the femoral artery sheath to measure peripheral arterial pressure. Approximately 3-4 million neutron-activated microspheres (BioPhysics Assay Laboratory, Inc, Worcester, Ma) (15 μm) were delivered through a pig-tail catheter into the left ventricle over a 30 second period, to quantify regional myocardial blood flow (RMBF). Simultaneously with injection, a reference sample was withdrawn at a rate of 7 cc/min from the femoral artery sheath, for 90 seconds during and after injection of microspheres. A contrast ventriculogram (60° right anterior oblique) was obtained to assess global and regional myocardial function at baseline. […] Balloon occlusion time was 75 minutes with coronary occlusion confirmed by contrast angiography, ST segment changes on electrocardiography, and quantitatively confirmed by microspheres delivered at the end of ischemia, as described above. […] At the end of 180 minutes of reperfusion, animals were euthanized with an IV injection of pentobarbital sodium (100 mg/kg) and the heart was excised to quantify the area at risk, infarct size, regional myocardial blood flow, and myeloperoxidase activity. Hemodynamic data (left ventricular and arterial blood pressure) and derived variables were recorded continuously using 10× and Datanalyst software (EMKA Technologies, Falls Church, Va.).
Blood anticoagulation was measured by following the ACT, determined using the Hemochron whole blood coagulating system (Hemochron, Edison, N.J.) and measured 10 minutes after delivery of 50 U/kg of unfractionated heparin after the insertion of arterial sheaths. […]

[3] = tested on: anti-Xa; conditions: product of the procedure of U.S. Pat. No. 5,990,097; cited from earlier work

**Q.** With 2-O, 3-O desulfated heparin [ODSH] as the substance, how does the [Na^+]i [1] read?
**A.** The [Na^+]i was 7.85 ± 0.45 mM.

**Q.** What about the “elevation above control in ACT” value ([2]; 15 mg/kg dose group) of the same substance?
**A.** Its value is “approximately 200 seconds”.

**Q.** What about the “ACT group difference versus control” value ([2]; ODS 5 mg/kg, end ischemia) of the same substance?
**A.** The value was “no significant differences in ACT”.

**Q.** What about the “ACT group difference versus control” value ([2]; ODS 15 mg/kg, end ischemia) of the same substance?
**A.** The value was “no significant differences in ACT”.

**Q.** And the “ACT compared to the other groups” value ([2]; ODS 45 mg/kg, end ischemia, 90 and 180 min after end of ischemia, on 50 U/kg UFH background)?
**A.** The value was “significantly higher”.

**Q.** What about the anti-Xa anti-coagulant activity [3] of the same substance?
**A.** Its anti-Xa anti-coagulant activity is “less than 10 U/mg”.
